According to ChEMBL document CHEMBL1121775, “Synthesis and antimalarial effects of N2-aryl-N4-[(dialkylamino)alkyl]- and N4-aryl-N2-[(dialkylamino)alkyl]-2,4-quinazolinediamines” (J Med Chem, 1981):
Values joined by “and” are separate entries in the source; they are usually repeats but may differ in a detail not shown here. Identical values can stand only once.

Experiments:
Plasmodium berghei [1] = test: Antimalarial effect against trophozoite-induced Plasmodium berghei in mice (Mus musculus) after 40 mg/kg subcutaneous dose; type: functional
Plasmodium berghei [2] = test: Antimalarial effect against trophozoite-induced Plasmodium berghei in mice (Mus musculus) at 160 mg/kg subcutaneous dose; type: functional
Plasmodium berghei [3] = test: Antimalarial activity against trophozoite-induced Plasmodium berghei in mice (Mus musculus); type: functional
Mus musculus [4] = test: (§1) Number of toxic deaths at a dose of 640 mg/kg; type: toxicity, organism-based; set-up: dose 640 mg/kg; conditions: in vivo
[5] = The ratio of SD90 of the quinine hydrochloride, to the SD90 of the test substance for the Dose of >30 mg/kg; type: functional
Plasmodium berghei [6] = test: Antimalarial effect against trophozoite-induced Plasmodium berghei in mice (Mus musculus) after 20 mg/kg subcutaneous dose; type: functional
Plasmodium berghei [7] = test: Antimalarial effect against trophozoite-induced Plasmodium berghei in mice (Mus musculus) at 320 mg/kg subcutaneous dose; type: functional
Plasmodium berghei [8] = test: Antimalarial effect against trophozoite-induced Plasmodium berghei in mice (Mus musculus) at 640 mg/kg subcutaneous dose; type: functional; conditions: 640 mg/kg
Mus musculus [9] = test: as §1; type: functional
Plasmodium berghei [10] = test: Antimalarial effect against trophozoite-induced Plasmodium berghei in mice (Mus musculus) at 80 mg/kg subcutaneous dose; type: functional
[11] = The ratio of SD90 of the quinine hydrochloride, to the SD90 of the test substance for the Dose of 50 mg/kg; type: functional
Plasmodium berghei [12] = test: Antimalarial activity against trophozoite-induced Plasmodium berghei in mice (Mus musculus) at 160 mg/kg subcutaneous dose; type: functional; conditions: 160 mg/kg
Mus musculus [13] = test: Number of mice cured at a dose of 320 mg/kg sc; type: functional; conditions: route subcutaneous
Mus musculus [14] = test: Antimalarial effect against trophozoite-induced Plasmodium berghei in mice (Mus musculus) at dosage of 80 mg/kg after subcutaneous administration; type: functional
Mus musculus [15] = test: Antimalarial effect against trophozoite-induced Plasmodium berghei in mice (Mus musculus) at dosage of 80 mg/kg after subcutaneous administration; No. of mice (Mus musculus) surviving after 60 days 1; type: functional
Mus musculus [16] = test: Number of mice cured at a subcutaneous dose of 160 mg/kg.; type: functional
Mus musculus [17] = test: Antimalarial effect against trophozoite induced Plasmodium berghei in mice (Mus musculus) at dosage of 160 mg/kg after subcutaneous administration; No. of mice (Mus musculus) surviving after 60 days 1; type: functional
[18] = (§2) The ratio of SD90 of the quinine hydrochloride, to the SD90 of the test substance for the Dose of 8.5 mg/kg; type: functional
Mus musculus [19] = test: as §2; type: functional

SMILES: CCOc1ccc(Nc2nc(NCCN(CC)CC)c3ccc(Cl)cc3n2)cc1CN(CC)CC
- MST (Plasmodium berghei [1]): 0.6 days
- MST (Plasmodium berghei [2]): 0.8 days
- SD90 (Plasmodium berghei [3]): >30 mg/kg/day
- No. of toxic deaths (Mus musculus [4]): 5
- Ratio [5]: <2.5

SMILES: CCN(CC)CCNc1nc(Nc2ccc(N3CCN(C)CC3)cc2)nc2ccccc12
- MST (Plasmodium berghei [6]): 0.2 days
- MST (Plasmodium berghei [7]): 5.2 days
- MST (Plasmodium berghei [1]; 40 mg/kg): 1 days and 0.8 days
- MST (Plasmodium berghei [8]): 6.8 days and 6.3 days
- No. of toxic deaths (Mus musculus [9]): 3
- MST (Plasmodium berghei [2]; 160 mg/kg): 4.8 days and 4.2 days
- SD90 (Plasmodium berghei [3]): 50 mg/kg/day
- MST (Plasmodium berghei [10]): 3.4 days
- No. of toxic deaths (Mus musculus [4]): 3
- Ratio [11]: 1.5

SMILES: CCN(CC)C1CCC(Nc2nc(Nc3ccc(Cl)c(Cl)c3)nc3ccccc23)CC1 (configuration not stated)
- MST (Plasmodium berghei [6]): 0.9 days
- MST (Plasmodium berghei [7]): 22.9 days
- MST (Plasmodium berghei [1]; 40 mg/kg): 10.1 days and 10.5 days
- MST (Plasmodium berghei [12]): 13.9 days and 13.7 days
- No. of cured (Mus musculus [13]): 5
- SD90 (Plasmodium berghei [3]): 8.5 mg/kg/day
- MST (Mus musculus [14]): 10.4 days
- MST (Mus musculus [15]): 10.4 days
- No. of survivals (Mus musculus [16]): 1
- MST (Mus musculus [17]): 13.7 days
- Ratio [18]: 8.8
- Ratio (Mus musculus [19]): 8.8
